This is an account of results in ChEMBL document CHEMBL3886663, “COMPOUNDS AND USES” (2016).

The target in the assay is T1, Leukotriene C4 synthase (Homo sapiens, UniProt Q16873).
T1 sequence (Q16873 whole entry): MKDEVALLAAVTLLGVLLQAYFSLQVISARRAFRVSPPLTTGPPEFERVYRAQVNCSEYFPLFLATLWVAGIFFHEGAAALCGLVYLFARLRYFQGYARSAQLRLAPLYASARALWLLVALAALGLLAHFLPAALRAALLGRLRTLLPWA
The assay is described as follows: Recombinant human LTC4 synthase is expressed in […] and the purified enzyme is dissolved in 25 mM tris-buffer pH 7.8 supplemented with 0.1 mM glutathione (GSH) and stored at −80 °C. […] The buffer is used as background. Runs are performed in duplicates. […] The reaction is stopped after 1 min by addition of double the reaction volume of a stop solution (MeOH:H2O:acetic acid 70:30:1).
The IC50 is the midpoint of a concentration-inhibition curve. Take `COc1cc(N(Cc2cc(F)cc3c2OCOC3)CC2CC2)cnc1C(=O)C1CC1C(=O)O` (stereo not given): the IC50 turned out to be 478 nM. As to `COc1cc(N(Cc2cccc(C)c2)CC2CC2)cnc1C(=O)C1CC1C(=O)O` (stereo not given), the IC50 is 171 nM.

Take `COc1cc(N(Cc2cc(Cl)cc3c2OCO3)CC2CC2)cnc1C(=O)C1CC1C(=O)O` (stereo not given): the IC50 is 588 nM. For the compound `COc1cc(N(CC2CC2)c2ccc(C)c3ccccc23)ncc1C(=O)C1CC1C(=O)O` (stereo not given), the IC50 stood at 56 nM. Regarding `COc1cc(N(Cc2ccc(-c3ccccc3)cc2)CC2CC2)cnc1C(=O)C1CC1C(=O)O` (stereo not given), the IC50 turned out to be 2180 nM. In the case of `COc1cc(N(Cc2cccc3ccccc23)CC2CC2)cnc1C(=O)C1CC1C(=O)O` (stereo not given) it was 66 nM; in that of `COc1cc(N(Cc2c(Cl)cccc2Cl)CC2CC2)cnc1C(=O)C1CC1C(=O)O` (stereo not given), 800 nM. On to `COc1cc(N(Cc2ccc(C(F)(F)F)cc2F)CC2CC2)cnc1C(=O)C1CC1C(=O)O` (stereo not given), for which the IC50 worked out at 53 nM. Consider `COc1cc(N(Cc2ccc(C)cc2)CC2CC2)cnc1C(=O)C1CC1C(=O)O` (stereo not given), for which the IC50 was found to be 22 nM. For the compound `COc1cc(N(CC2CC2)c2cccc3c(C)ccnc23)cnc1C(=O)C1CC1C(=O)O` (stereo not given), the IC50 was 445 nM.
